This is an account of results in patent US10307425B2, “Compositions and methods for treating toxoplasmosis, cryptosporidiosis and other apicomplexan protozoan related diseases” (UNIVERSITY OF WASHINGTON, priority 2015, dated 2019).

The assay has as its target TgCDPK1 (Toxoplasma gondii, UniProt Q9BJF5). As to the kind of experiment: biochemical.

Sequence of TgCDPK1 (Q9BJF5 1-507): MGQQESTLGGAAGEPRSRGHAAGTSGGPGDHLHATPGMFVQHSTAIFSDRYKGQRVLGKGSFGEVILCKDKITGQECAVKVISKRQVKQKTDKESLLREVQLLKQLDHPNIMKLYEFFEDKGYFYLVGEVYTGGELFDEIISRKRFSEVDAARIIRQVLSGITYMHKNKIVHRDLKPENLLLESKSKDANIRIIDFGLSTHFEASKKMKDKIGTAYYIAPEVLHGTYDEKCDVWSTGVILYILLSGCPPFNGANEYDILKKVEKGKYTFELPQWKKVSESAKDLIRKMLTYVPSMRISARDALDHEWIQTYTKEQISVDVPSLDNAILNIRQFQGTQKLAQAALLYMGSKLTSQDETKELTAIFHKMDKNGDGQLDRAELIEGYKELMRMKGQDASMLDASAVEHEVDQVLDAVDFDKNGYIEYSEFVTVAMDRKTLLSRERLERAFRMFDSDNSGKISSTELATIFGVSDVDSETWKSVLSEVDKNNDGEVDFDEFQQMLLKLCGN

For `Nc1ncnc2c1c(-c1ccc3cc(OC4CC4)ccc3c1)nn2CC1(O)CCOCC1` [Example 63, 4-((4-amino-3-(6-cyclopropoxynaphthalen-2-yl)-1H-pyrazolo[3,4-d]pyrimidin-1-yl)methyl)-tetrahydro-2H-pyran-4-ol], inhibition was half-maximal at 12.8 nM (IC50).
The result for `CC(C)n1nc(-c2ccc3cc(OCC(C)(C)O)ccc3c2)c2c(N)ncnc21` [Example 117, 1-((6-(4-amino-1-isopropyl-1H-pyrazolo[3,4-d]pyrimidin-3-yl)naphthalen-2-yl)oxy)-2-methylpropan-2-ol] reads 3 nM; that for `CN1CCC(Cn2nc(-c3ccc4cc(OC5COC5)ccc4c3)c3c(N)ncnc32)CC1` [Example 12, 1-((1-Methylpiperidin-4-yl)methyl)-3-(6-(oxetan-3-yloxy)naphthalen-2-yl)-1H-pyrazolo[3,4-d]pyrimidin-4-amine], 10.7 nM.
As to `Nc1ncnc2c1c(-c1ccc3nc(OC4CC4)ccc3c1)nn2CC1(O)CNC1` [Example 101, 3-((4-amino-3-(2-cyclopropoxyquinolin-6-yl)-1H-pyrazolo[3,4-d]pyrimidin-1-yl)methyl)azetidin-3-ol], inhibition was half-maximal at 3 nM (IC50).
The same measure for `CC(C)(CO)Cn1nc(-c2ccc3nc(OCC(F)(F)F)ccc3c2)c2c(N)ncnc21` [Example 2, 3-(4-Amino-3-(2-(2,2,2-trifluoroethoxy)quinolin-6-yl)-1H-pyrazolo[3,4-d]pyrimidin-1-yl)-2,2-dimethylpropan-1-ol]: 17.2 nM.
The result for `CN1CCC(Cn2nc(-c3ccc4cc(OCC#N)ccc4c3)c3c(N)ncnc32)CC1` [Example 73, 2-((6-(4-amino-1-((1-methylpiperidin-4-yl)methyl)-1H-pyrazolo[3,4-d]pyrimidin-3-yl)naphthalen-2-yl)oxy)acetonitrile] reads 73.8 nM; that for `COC(=O)C(C)(C)Cn1nc(-c2ccc3nc(OC4CC4)ccc3c2)c2c(N)ncnc21` [Example 69, methyl 3-(4-amino-3-(2-cyclopropoxyquinolin-6-yl)-1H-pyrazolo[3,4-d]pyrimidin-1-yl)-2,2-dimethylpropanoate], 43.2 nM.
Consider `CN1CCC(C#N)(Cn2nc(-c3ccc4cc(OC5CC5)ccc4c3)c3c(N)ncnc32)CC1` [Example 83, 4-((4-amino-3-(6-cyclopropoxynaphthalen-2-yl)-1H-pyrazolo[3,4-d]pyrimidin-1-yl)methyl)-1-methylpiperidine-4-carbonitrile], for which the IC50 (as a rule, the midpoint of a concentration-inhibition curve) is 3.5 nM.
The same measure for `CC(C)(O)Cn1cc(-c2ccc3cc(OC4CC4)ccc3c2)c2c(N)ncnc21` [Example 58, 1-(4-amino-5-(6-cyclopropoxynaphthalen-2-yl)-7H-pyrrolo[2,3-d]pyrimidin-7-yl)-2-methylpropan-2-ol]: 9.1 nM.
The same measure for `COCCOc1ccc2cc(-c3nn(CC4CCN(C)CC4)c4ncnc(N)c34)ccc2n1` [Example 42, 3-(2-(2-methoxyethoxy)quinolin-6-yl)-1-((1-methylpiperidin-4-yl)methyl)-1H-pyrazolo[3,4-d]pyrimidin-4-amine]: 8 nM; for `CN1CCC(O)(Cn2nc(-c3ccc4cc(OC5CC5)ccc4c3)c3c(N)ncnc32)CC1` [Example 79, 4-((4-amino-3-(6-cyclopropoxynaphthalen-2-yl)-1H-pyrazolo[3,4-d]pyrimidin-1-yl)methyl)-1-methylpiperidin-4-ol]: 4.5 nM; for `COC(C)(C)Cn1nc(-c2ccc3nc(OC4CC4)ccc3c2)c2c(N)ncnc21` [Example 67, 3-(2-cyclopropoxyquinolin-6-yl)-1-(2-methoxy-2-methylpropyl)-1H-pyrazolo[3,4-d]pyrimidin-4-amine]: 430 nM.
The result for `CC(C)Cn1nc(-c2ccc3cc(OCCO)ccc3c2)c2c(N)ncnc21` [Example 34, 2-(6-(4-amino-1-isobutyl-1H-pyrazolo[3,4-d]pyrimidin-3-yl)naphthalen-2-yloxy)ethanol] reads 5.8 nM; that for `CC(C)(COCCO)Cn1nc(-c2ccc3nc(OC4CC4)ccc3c2)c2c(N)ncnc21` [Example 45, 2-(3-(4-amino-3-(2-cyclopropoxyquinolin-6-yl)-1H-pyrazolo[3,4-d]pyrimidin-1-yl)-2,2-dimethylpropoxy)ethanol], 1200 nM; that for `CCOc1ccc2cc(-c3nc(CC4CCN(C)CC4)n4ccnc(N)c34)ccc2c1` [Example 115, 1-(6-ethoxynaphthalen-2-yl)-3-((1-methylpiperidin-4-yl)methyl)imidazo[1,5-a]pyrazin-8-amine], 18.6 nM.
As for `Nc1ncnc2c1c(-c1ccc3nc(OC4CC4)ccc3c1)nn2CC1(O)CCCC1` [Example 60, 1-((4-amino-3-(2-cyclopropoxyquinolin-6-yl)-1H-pyrazolo[3,4-d]pyrimidin-1-yl)methyl)cyclopentanol], the half-inhibitory concentration (IC50) came to 12.7 nM.
The same measure for `CCOc1ccc2cc(-c3nn(CC4(C#N)CCNCC4)c4ncnc(N)c34)ccc2c1` [Example 74, 4-((4-amino-3-(6-ethoxynaphthalen-2-yl)-1H-pyrazolo[3,4-d]pyrimidin-1-yl)methyl)piperidine-4-carbonitrile]: 2.7 nM.
The same measure for `CN1CCC(C#N)(Cn2nc(-c3ccc4cc(OC(F)F)ccc4c3)c3c(N)ncnc32)CC1` [Example 102, 4-((4-amino-3-(6-(difluoromethoxy)naphthalen-2-yl)-1H-pyrazolo[3,4-d]pyrimidin-1-yl)methyl)-1-methylpiperidine-4-carbonitrile]: 18.2 nM.
Consider `Nc1ncnc2c1c(-c1ccc3cc(OC4CC4)ccc3c1)nn2CC(=O)N1CCOCC1` [Example 51, 2-(4-amino-3-(6-cyclopropoxynaphthalen-2-yl)-1H-pyrazolo[3,4-d]pyrimidin-1-yl)-1-morpholinoethanone], for which the midpoint of inhibition, the IC50, lay at 15.8 nM.
The same measure for `Nc1ncnc2c1c(-c1ccc3nc(OC4CC4)ccc3c1)nn2CC1(O)CCNCC1` [Example 82, 4-((4-amino-3-(2-cyclopropoxyquinolin-6-yl)-1H-pyrazolo[3,4-d]pyrimidin-1-yl)methyl)piperidin-4-ol]: 0.7 nM.
The result for `Nc1ncnc2c1c(-c1ccc3nc(OC4CC4)ccc3c1)nn2CC1(O)CCC1` [Example 57, 1-((4-amino-3-(2-cyclopropoxyquinolin-6-yl)-1H-pyrazolo[3,4-d]pyrimidin-1-yl)methyl)cyclobutanol] reads 6.1 nM; that for `COCCOc1ccc2cc(-c3nn(CC(C)C)c4ncnc(N)c34)ccc2c1` [Example 36, 1-isobutyl-3-(6-(2-methoxyethoxy)naphthalen-2-yl)-1H-pyrazolo[3,4-d]pyrimidin-4-amine], 1.7 nM; that for `CCOc1ccc2cc(-c3nn(C(C)C)c4ncnc(N)c34)ccc2n1` [Example 106, 3-(2-ethoxyquinolin-6-yl)-1-isopropyl-1H-pyrazolo[3,4-d]pyrimidin-4-amine], 2 nM.
The same measure for `COC(C)(C)Cn1nc(-c2ccc3cc(OC4CC4)ccc3c2)c2c(N)ncnc21` [Example 66, 3-(6-cyclopropoxynaphthalen-2-yl)-1-(2-methoxy-2-methylpropyl)-1H-pyrazolo[3,4-d]pyrimidin-4-amine]: 1660 nM; for `Nc1ncnc2c1c(-c1ccc3cc(OC4CCC4)ccc3c1)nn2CC1CCOCC1` [Example 30, 3-(6-cyclobutoxynaphthalen-2-yl)-1-((tetrahydro-2H-pyran-4-yl)methyl)-1H-pyrazolo[3,4-d]pyrimidin-4-amine]: 2.6 nM.
`Nc1ncnc2c1c(-c1ccc3cc(OC4CC4)ccc3c1)nn2CC1(CO)COC1` [Example 65, (3-((4-amino-3-(6-cyclopropoxynaphthalen-2-yl)-1H-pyrazolo[3,4-d]pyrimidin-1-yl)methyl)oxetan-3-yl)methanol] yielded an IC50 of 2.9 nM.
The result for `CC(C)(O)Cn1nc(-c2ccc3nc(OCC(F)(F)F)ccc3c2)c2c(N)ncnc21` [Example 46, 1-(4-amino-3-(2-(2,2,2-trifluoroethoxy)quinolin-6-yl)-1H-pyrazolo[3,4-d]pyrimidin-1-yl)-2-methylpropan-2-ol] reads 18.3 nM.
As for `CC(C)Cn1nc(-c2ccc3cc(OC4COC4)ccc3c2)c2c(N)ncnc21` [Example 35, 1-isobutyl-3-(6-(oxetan-3-yloxy)naphthalen-2-yl)-1H-pyrazolo[3,4-d]pyrimidin-4-amine], half-maximal inhibition (IC50) required 4 nM.
The result for `Nc1ncnc2c1c(-c1ccc3cc(OC(F)F)ccc3c1)nn2CC1CCNCC1` [Example 94, 3-(6-(difluoromethoxy)naphthalen-2-yl)-1-(piperidin-4-ylmethyl)-1H-pyrazolo[3,4-d]pyrimidin-4-amine] reads 1.9 nM; that for `CC(C)Cn1nc(-c2ccc3cc(OC4CC4)ccc3c2)c2c(N)ncnc21` [Example 9, 3-(6-cyclopropoxynaphthalen-2-yl)-1-isobutyl-1H-pyrazolo[3,4-d]pyrimidin-4-amine], 6 nM; that for `Nc1ncnc2c1c(-c1ccc3cc(OC(F)F)ccc3c1)nn2CC1(O)CCNCC1` [Example 98, 4-((4-amino-3-(6-(difluoromethoxy)naphthalen-2-yl)-1H-pyrazolo[3,4-d]pyrimidin-1-yl)methyl)piperidin-4-ol], 7.5 nM.
The result for `COC(=O)C(C)(C)Cn1nc(-c2ccc3cc(OC4CC4)ccc3c2)c2c(N)ncnc21` [Example 68, methyl 3-(4-amino-3-(6-cyclopropoxynaphthalen-2-yl)-1H-pyrazolo[3,4-d]pyrimidin-1-yl)-2,2-dimethylpropanoate] reads 9.7 nM; that for `Nc1ncnc2c1c(-c1ccc3cc(OC4CC4)ccc3c1)nn2CC1(O)CCNCC1` [Example 78, 4-((4-amino-3-(6-cyclopropoxynaphthalen-2-yl)-1H-pyrazolo[3,4-d]pyrimidin-1-yl)methyl)piperidin-4-ol], 0.7 nM.
As for `CN1CCC(C#N)(Cn2nc(-c3ccc4nc(OC5CC5)ccc4c3)c3c(N)ncnc32)CC1` [Example 92, 4-((4-amino-3-(2-cyclopropoxyquinolin-6-yl)-1H-pyrazolo[3,4-d]pyrimidin-1-yl)methyl)-1-methylpiperidine-4-carbonitrile], the midpoint of inhibition, the IC50, lay at 5.5 nM.
The same measure for `CCOc1ccc2cc(-c3nn(CC4(C#N)CCN(C)CC4)c4ncnc(N)c34)ccc2n1` [Example 87, 4-((4-amino-3-(2-ethoxyquinolin-6-yl)-1H-pyrazolo[3,4-d]pyrimidin-1-yl)methyl)-1-methylpiperidine-4-carbonitrile]: 103 nM.
